Measurements as given in ChEMBL document CHEMBL5356996, “Discovery of Novel NLRP3 Inflammasome Inhibitors Composed of an Oxazole Scaffold Bearing an Acylsulfamide” (ACS Med Chem Lett, 2023).
Values after ≈ are worked out from the molar mass of the structure shown.

What was measured:
[1] = molecular target: T1, NACHT, LRR and PYD domains-containing protein 3 (Homo sapiens, UniProt Q96P20); test: Inhibition of NLRP3 in LPS/nigericin-induced human THP-1 cells assessed as inhibition of IL-1beta production pretreated with LPS for 3 hrs followed by incubation with compound for 15 mins and later stimulated with nigericin for 90 mins by AlphaLISA assay; type: cell-based
T1 sequence (Q96P20 whole entry, the tested form may be a part): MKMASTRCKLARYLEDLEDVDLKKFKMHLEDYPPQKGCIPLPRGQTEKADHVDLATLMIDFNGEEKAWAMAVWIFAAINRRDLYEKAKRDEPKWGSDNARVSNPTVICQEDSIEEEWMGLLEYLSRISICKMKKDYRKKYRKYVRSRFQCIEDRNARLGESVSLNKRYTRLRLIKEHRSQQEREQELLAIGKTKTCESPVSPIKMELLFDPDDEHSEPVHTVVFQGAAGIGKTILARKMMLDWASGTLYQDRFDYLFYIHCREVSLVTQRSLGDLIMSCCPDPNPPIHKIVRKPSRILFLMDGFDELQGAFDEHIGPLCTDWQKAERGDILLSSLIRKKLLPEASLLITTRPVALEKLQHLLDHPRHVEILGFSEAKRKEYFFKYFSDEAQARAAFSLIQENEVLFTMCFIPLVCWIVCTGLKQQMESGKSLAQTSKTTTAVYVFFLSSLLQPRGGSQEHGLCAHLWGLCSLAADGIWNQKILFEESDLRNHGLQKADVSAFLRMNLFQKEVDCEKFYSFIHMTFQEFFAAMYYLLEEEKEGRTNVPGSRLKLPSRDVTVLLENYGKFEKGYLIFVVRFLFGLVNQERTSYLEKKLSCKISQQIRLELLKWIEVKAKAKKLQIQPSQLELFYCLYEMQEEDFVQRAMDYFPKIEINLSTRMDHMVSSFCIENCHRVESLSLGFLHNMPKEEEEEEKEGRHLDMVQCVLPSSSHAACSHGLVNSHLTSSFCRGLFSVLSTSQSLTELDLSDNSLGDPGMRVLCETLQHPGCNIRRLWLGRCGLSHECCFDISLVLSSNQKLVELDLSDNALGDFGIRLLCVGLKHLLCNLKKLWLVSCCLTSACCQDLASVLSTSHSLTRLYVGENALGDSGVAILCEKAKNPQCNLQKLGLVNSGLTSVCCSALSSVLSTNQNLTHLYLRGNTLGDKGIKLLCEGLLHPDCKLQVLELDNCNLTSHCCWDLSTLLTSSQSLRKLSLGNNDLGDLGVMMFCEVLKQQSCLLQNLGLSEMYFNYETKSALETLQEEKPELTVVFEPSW

[2] = Solubility of the compound in FaSSIF at pH 6.5 incubated for 4 to 24 hrs by LC/MS analysis; type: physicochemical; conditions: time 4-24 hrs
[3] = molecular target: T1, NACHT, LRR and PYD domains-containing protein 3; test: Inhibition of NLRP3 in human whole blood assessed as inhibition of IL-1beta production pretreated with LPS for 3 hrs followed by incubation with compound for 0.5 hrs and later incubated with ATP for 1.5 hrs by AlphaLISA assay; type: tissue-based
[4] = Lipophilicity, logD of the compound; type: physicochemical; conditions: octanol/water
[5] = Plasma protein binding in human by equilibrium dialysis method; type: ADME, cell-free; conditions: read-out: PPB (converted)
[6] = Apparent permeability of the compound in human Caco-2 cells at 25 umol/L incubated for 2 hrs by LC/MS/MS analysis; type: ADME, cell-based; conditions: dose 25 µmol/L
[7] = molecular target: NLR family CARD domain-containing protein 4 (Homo sapiens, UniProt Q9NPP4); test: Inhibition of NLRC4 (unknown origin) in PMA-differentiated human THP-1 cells assessed as inhibition of IL-1 beta production pretreated for 15 mins followed by flagellin stimulation and measured after 18 hrs by AlphaLISA assay; type: cell-based
Sequence of NLR family CARD domain-containing protein 4 (Q9NPP4 whole entry, the tested form may be a part): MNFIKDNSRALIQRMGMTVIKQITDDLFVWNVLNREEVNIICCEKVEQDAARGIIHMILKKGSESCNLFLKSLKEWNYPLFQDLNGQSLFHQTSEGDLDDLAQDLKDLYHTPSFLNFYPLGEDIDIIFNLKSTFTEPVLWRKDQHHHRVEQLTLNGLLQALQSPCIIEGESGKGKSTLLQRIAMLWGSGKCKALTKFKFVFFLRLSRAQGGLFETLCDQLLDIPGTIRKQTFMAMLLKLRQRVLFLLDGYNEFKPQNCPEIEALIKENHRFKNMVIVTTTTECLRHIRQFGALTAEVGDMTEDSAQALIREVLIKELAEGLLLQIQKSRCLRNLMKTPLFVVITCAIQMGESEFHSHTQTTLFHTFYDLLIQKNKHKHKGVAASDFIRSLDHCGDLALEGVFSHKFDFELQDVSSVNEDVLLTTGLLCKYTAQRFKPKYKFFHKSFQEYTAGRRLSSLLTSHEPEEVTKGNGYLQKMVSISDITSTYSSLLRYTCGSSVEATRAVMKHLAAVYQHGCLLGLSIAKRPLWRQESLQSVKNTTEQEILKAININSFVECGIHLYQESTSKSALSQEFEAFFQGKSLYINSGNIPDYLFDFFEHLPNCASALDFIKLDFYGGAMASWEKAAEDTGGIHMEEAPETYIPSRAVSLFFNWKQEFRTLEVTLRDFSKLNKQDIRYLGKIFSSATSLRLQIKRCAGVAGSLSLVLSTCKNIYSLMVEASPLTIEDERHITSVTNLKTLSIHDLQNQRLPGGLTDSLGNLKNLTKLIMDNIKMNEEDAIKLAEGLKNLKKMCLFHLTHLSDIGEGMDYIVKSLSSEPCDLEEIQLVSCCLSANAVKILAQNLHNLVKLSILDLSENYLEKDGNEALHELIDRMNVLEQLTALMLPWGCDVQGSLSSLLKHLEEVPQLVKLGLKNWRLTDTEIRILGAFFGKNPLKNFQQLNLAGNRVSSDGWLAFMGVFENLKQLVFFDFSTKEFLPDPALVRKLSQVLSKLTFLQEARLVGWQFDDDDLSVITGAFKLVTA

[8] = Plasma protein binding in rat by equilibrium dialysis method; type: ADME, cell-free; conditions: read-out: PPB (converted)
[9] = Plasma protein binding in mouse by equilibrium dialysis method; type: ADME, cell-free; conditions: read-out: PPB (converted)
[10] = Metabolic stability in human liver microsomes assessed as compound remaining incubated for 60 mins; type: ADME, Microsome; conditions: read-out: Stability
[11] = Metabolic stability in rat liver microsomes assessed as compound remaining incubated for 60 mins; type: ADME, Microsome; conditions: read-out: Stability
[12] = Metabolic stability in mouse liver microsomes assessed as compound remaining incubated for 60 mins; type: ADME, Microsome; conditions: read-out: Stability
[13] = Metabolic stability in dog liver microsomes assessed as compound remaining incubated for 60 mins; type: ADME, Canis lupus familiaris, Microsome; conditions: read-out: Stability
[14] = Mean residence time in Sprague-Dawley rat at 0.3 mg/kg, iv; type: ADME, organism-based; conditions: in vivo
[15] = Total body clearance in Sprague-Dawley rat at 0.3 mg/kg, iv measured for 25 hrs; type: ADME, organism-based; conditions: in vivo
[16] = Volume of distribution at steady state in Sprague-Dawley rat at 0.3 mg/kg, iv measured for 25 hrs; type: ADME, organism-based; conditions: in vivo, read-out: Vdss
[17] = Cmax in Sprague-Dawley rat at 1 mg/kg, po measured for 25 hrs; type: ADME, organism-based; parameters: dose 1 mg/kg, time 25 hrs, route po; conditions: in vivo
[18] = Mean residence time in Sprague-Dawley rat at 1 mg/kg, po; type: ADME, organism-based; conditions: in vivo
[19] = Oral bioavailability in Sprague-Dawley rat at 1 mg/kg measured for 25 hrs; type: ADME, organism-based; conditions: in vivo
[20] = molecular target: Cytochrome P450 3A4 (Homo sapiens, UniProt P08684); test: Inhibition of CYP3A4 in human liver microsomes using testosterone and midazolam as substrates by LC-MS/MS analysis; type: ADME, Microsome
Sequence of Cytochrome P450 3A4 (P08684 whole entry): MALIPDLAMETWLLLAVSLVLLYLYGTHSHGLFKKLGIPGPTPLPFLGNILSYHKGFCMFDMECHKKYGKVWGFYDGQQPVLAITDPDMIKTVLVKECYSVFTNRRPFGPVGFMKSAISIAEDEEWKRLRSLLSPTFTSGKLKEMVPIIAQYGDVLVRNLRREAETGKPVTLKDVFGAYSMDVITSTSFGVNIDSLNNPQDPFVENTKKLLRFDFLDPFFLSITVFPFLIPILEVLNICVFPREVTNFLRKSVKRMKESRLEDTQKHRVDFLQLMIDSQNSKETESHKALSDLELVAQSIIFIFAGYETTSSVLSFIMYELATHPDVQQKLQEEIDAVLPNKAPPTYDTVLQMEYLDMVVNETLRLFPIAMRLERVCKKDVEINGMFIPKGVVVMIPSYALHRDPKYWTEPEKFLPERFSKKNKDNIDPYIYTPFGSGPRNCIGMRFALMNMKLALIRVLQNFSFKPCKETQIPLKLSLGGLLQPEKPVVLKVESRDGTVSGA

[21] = system: Mus musculus; test: Anti-inflammatory activity against LPS-stimulated C57BL/6J mouse assessed as reduction in IL-1beta level administered orally pretreated for 0.5 hrs before LPS challenge and measured after 4 hrs by ELISA; type: functional, organism-based; conditions: dose 1-10 mg/kg, route po, time 4.5 hrs
[22] = system: Mus musculus; test: Anti-inflammatory activity against adriamycin-induced glomerulonephritis BALB/c mouse model assessed as decrease in urine albumin-to-creatinine ratio administered orally for 2 weeks and measured for 24 hrs; type: functional, organism-based; conditions: dose 30-300 mg/kg, route po, time 15.0 day
[23] = system: THP-1; test: cells; conditions: Homo sapiens

| IC50 [1] | solubility [2] | logD [4] | SMILES | also measured |
| --- | --- | --- | --- | --- |
| 0.51 µM |  | 2 | Cc1ccc(C)c(Nc2nc(C(=O)NS(=O)(=O)N(C)C)co2)c1 | IC50 [3]: 11 µM |
|  |  | 2.1 | Cc1ccc(C(F)(F)F)nc1Nc1nc(C(=O)NS(=O)(=O)N(C)C)co1 | IC50 [3]: 4.7 µM |
| 0.14 µM |  | 2.7 | Cc1ccc(C(C)C)cc1Nc1nc(C(=O)NS(=O)(=O)N(C)C)co1 | IC50 [3]: 6.8 µM |
|  | > 475 µM | 2.3 | CN(C)S(=O)(=O)NC(=O)c1cnc(Nc2c3c(cc4c2CCC4)CCC3)o1 | Papp at 2 h, 25 µM [6]: 12 nm/s |
|  | 18.1 µM (≈ 7.28 µg/mL) | 3.8 | CN1CCN(C(=O)c2cnc(Nc3c4c(cc5c3CCC5)CCC4)o2)S1(=O)=O | Papp at 2 h, 25 µM [6]: 155 nm/s |
| > 30 µM |  |  | COC(=O)CN1CC(=O)N(c2c3c(cc4c2CCC4)CCC3)C1=O |  |
|  |  | 2.9 | Cc1ccc(C2CCC2)cc1Nc1nc(C(=O)NS(=O)(=O)N(C)C)co1 |  |
|  | 436 µM (≈ 170 µg/mL) | 2.8 | CN(C)S(=O)(=O)NC(=O)c1coc(Nc2c3c(cc4c2CCC4)CCC3)n1 | IC50 [3]: 7.8 µM; Papp at 2 h, 25 µM [6]: 485 nm/s |
|  |  | 2.9 | CC(C)c1ccc2c(c1Nc1nc(C(=O)NS(=O)(=O)N(C)C)co1)CCC2 | IC50 [3]: 5.8 µM |
|  | 444 µM (≈ 199 µg/mL) | 2.4 | Cc1ccc(C(F)(F)F)cc1Nc1nc(C(=O)NS(=O)(=O)N2CCCOCC2)co1 | fraction unbound [5]: 0.009; Papp at 2 h, 25 µM [6]: 278 nm/s; IC50 [7]: > 30 µM; fraction unbound [8]: 0.034; fraction unbound [9]: 0.062; remaining at 1 h [10]: 71.2%; remaining at 1 h [11]: 90.3%; remaining at 1 h [12]: 45.5%; remaining at 1 h [13]: 90%; MRT [14]: 4.7 h; clearance [15]: 0.06 L/h/kg; Vd [16]: 0.28 L/kg; Cmax [17]: 3.8 µM; MRT [18]: 6.3 h; bioavailability [19]: 121%; IC50 [20]: > 10 µM; Activity [21]: Dose-Dependent Effect; Activity [22]: Dose-Dependent Effect; IC50 [23]: 0.028 µM |
| 2.4 µM | 442 µM (≈ 126 µg/mL) | 1.8 | O=C(O)c1cnc(Nc2c3c(cc4c2CCC4)CCC3)o1 | Papp at 2 h, 25 µM [6]: 40 nm/s |
| > 10 µM |  |  | COC(=O)[C@@H]1CCCN1C(=O)Nc1c2c(cc3c1CCC3)CCC2 |  |

The next lines start with the compound.

| SMILES | IC50 [1] | solubility [2] | logD [4] | also measured |
| --- | --- | --- | --- | --- |
| CNC(=O)c1cnc(Nc2c3c(cc4c2CCC4)CCC3)o1 | > 30 µM | 43.9 µM (≈ 13.1 µg/mL) |  |  |
| Cc1ccc(C(F)(F)F)cc1Nc1nc(C(=O)NS(=O)(=O)N2CCOCC2)co1 | 0.038 µM |  | 2.2 | IC50 [3]: 8 µM; fraction unbound [5]: < 0.001 |
| COC(=O)[C@H]1CCCN1C(=O)Nc1c2c(cc3c1CCC3)CCC2 | > 10 µM |  |  |  |
| CCOC(=O)c1cnc(Nc2c3c(cc4c2CCC4)CCC3)s1 | > 30 µM |  |  |  |
| Cc1ccc(C(F)(F)F)cc1Nc1nc(C(=O)NS(=O)(=O)N(C)C(C)C)co1 |  |  | 3.3 | fraction unbound [5]: < 0.001 |
| CS(=O)(=O)NC(=O)c1cnc(Nc2c3c(cc4c2CCC4)CCC3)o1 | 6.8 µM | 475 µM (≈ 172 µg/mL) | 2.1 | Papp at 2 h, 25 µM [6]: 1.3 nm/s |
| Cc1ccc(C(F)(F)F)cc1Nc1nc(C(=O)NS(=O)(=O)N(C)C)co1 |  |  | 2.4 | fraction unbound [5]: 0.004 |
| CCOC(=O)c1cnc(Nc2c3c(cc4c2CCC4)CCC3)o1 |  | 11.1 µM (≈ 3.47 µg/mL) | 4.6 |  |
| Cc1ccc(C(C)(C)C)cc1Nc1nc(C(=O)NS(=O)(=O)N(C)C)co1 |  |  | 3 | IC50 [3]: 7.7 µM |
| NC(=O)c1cnc(Nc2c3c(cc4c2CCC4)CCC3)o1 | > 30 µM | 45.6 µM (≈ 12.9 µg/mL) |  |  |
| CC(=O)N1CCCN(S(=O)(=O)NC(=O)c2coc(Nc3cc(C(F)(F)F)ccc3C)n2)CC1 |  |  | 2.2 | fraction unbound [5]: 0.018 |
| CCOC(=O)c1cnc(Nc2c3c(cc4c2CCC4)CCC3)[nH]1 | > 30 µM |  |  |  |
| Cc1ccc2c(c1Nc1nc(C(=O)NS(=O)(=O)N(C)C)co1)CCC2 |  |  | 2.3 | IC50 [3]: 18 µM |
| CCOC(=O)c1nnc(Nc2c3c(cc4c2CCC4)CCC3)o1 | 8.9 µM |  |  |  |
| COC(=O)c1ccnc(Nc2c3c(cc4c2CCC4)CCC3)n1 | > 30 µM |  |  |  |
| Cc1ccc(C(F)(F)F)cc1Nc1nc(C(=O)NS(=O)(=O)N2CCCCC2)co1 |  |  | 3.1 | fraction unbound [5]: < 0.001 |
| Cc1ccc(C(F)(F)F)cc1Nc1nc(C(=O)NS(=O)(=O)N2CCCN(S(C)(=O)=O)CC2)co1 |  |  | 2.4 | fraction unbound [5]: 0.011 |
